Results: patent US10947188B2, “Small molecule ferroptosis inducers” (THE TRUSTEES OF COLUMBIA UNIVERSITY IN THE CITY OF NEW YORK, priority 2016, dated 2021)

Experiments:
BJeLR = assay: Modulatory profiling: Alamar Blue viability, lethal compound cotreated with death modulator (EC50, AUC); type: cell-based, human; design: AUC, modulator BJ.Gd3+ / AUC, modulator BJ.LNAME / AUC, modulator BJ.Lmin / AUC, modulator BJ.3MA / AUC, modulator BJ.ALLN / AUC, modulator BJ.Boc D / AUC, modulator BJ.CHX / AUC, modulator BJ.Co2+ / AUC, modulator BJ.Nec-1 / AUC, modulator BJ.Pepstatin / AUC, modulator BJ.TLCK / AUC, modulator BJ.atoc / AUC, modulator BJ.trolox / AUC, modulator BJ.zVAD: unit not given beside the values; conditions: BJeLR cells, modulatory profile value (AUC); for AUC, modulator BJ.3MA: lethal compound cotreated with modulator 3MA; for AUC, modulator BJ.ALLN: lethal compound cotreated with modulator ALLN; for AUC, modulator BJ.Boc D: lethal compound cotreated with modulator Boc D; for AUC, modulator BJ.CHX: lethal compound cotreated with modulator CHX; for AUC, modulator BJ.Co2+: lethal compound cotreated with modulator Co2+; for AUC, modulator BJ.DPQ: lethal compound cotreated with modulator DPQ; for AUC, modulator BJ.Gd3+: lethal compound cotreated with modulator Gd3+; for AUC, modulator BJ.LNAME: lethal compound cotreated with modulator LNAME; for AUC, modulator BJ.Lmin/NAD+: lethal compound cotreated with modulator Lmin/NAD+; for AUC, modulator BJ.Lmin: lethal compound cotreated with modulator Lmin; for AUC, modulator BJ.NAD+: lethal compound cotreated with modulator NAD+; for AUC, modulator BJ.NMMA: lethal compound cotreated with modulator NMMA; for AUC, modulator BJ.Nec-1: lethal compound cotreated with modulator Nec-1; for AUC, modulator BJ.Pepstatin: lethal compound cotreated with modulator Pepstatin; for AUC, modulator BJ.TLCK: lethal compound cotreated with modulator TLCK; on AUC, modulator BJ.3MA: reference of the scale not given here; on AUC, modulator BJ.ALLN: reference of the scale not given here; on AUC, modulator BJ.Boc D: reference of the scale not given here; on AUC, modulator BJ.CHX: reference of the scale not given here; on AUC, modulator BJ.Co2+: reference of the scale not given here; on AUC, modulator BJ.DPQ: reference of the scale not given here; on AUC, modulator BJ.Gd3+: reference of the scale not given here; on AUC, modulator BJ.LNAME: reference of the scale not given here; on AUC, modulator BJ.NAD+: reference of the scale not given here; on AUC, modulator BJ.NMMA: reference of the scale not given here; on AUC, modulator BJ.Nec-1: reference of the scale not given here; on AUC, modulator BJ.Pepstatin: reference of the scale not given here; on AUC, modulator BJ.TLCK: reference of the scale not given here
HT-1080 = assay: as above; type: cell-based; design: AUC, modulator HT.3MA / AUC, modulator HT.ALLN / AUC HT.ATA / AUC HT.ActD / AUC HT.BHA / AUC HT.BHT / AUC HT.BocD / AUC HT.CHX / AUC HT.Co2+ / AUC HT.DPQ / AUC HT.EGTA / AUC HT.Lmim / AUC HT.NAD+ / AUC HT.Nec-1 / AUC HT.SP600125 / AUC HT.TLCK / AUC HT.U0126: unit not given beside the values; conditions: for AUC HT.ATA: HT-1080, modulator ATA; for AUC HT.ActD: HT-1080, modulator ActD; for AUC HT.BHA: HT-1080, modulator BHA; for AUC HT.BHT: HT-1080, modulator BHT; for AUC HT.BocD: HT-1080, modulator BocD; for AUC HT.CHX: HT-1080, modulator CHX; for AUC HT.Co2+: HT-1080, modulator Co2+; for AUC HT.CspA: HT-1080, modulator CspA; for AUC HT.DPQ: HT-1080, modulator DPQ; for AUC HT.EGTA: HT-1080, modulator EGTA; for AUC HT.Gd3+: HT-1080, modulator Gd3+; for AUC HT.LNAME: HT-1080, modulator LNAME; for AUC HT.Lmim: HT-1080, modulator Lmim; for AUC HT.NAD+: HT-1080, modulator NAD+; for AUC HT.NMMA: HT-1080, modulator NMMA; for HT.atoc (AUC) / HT.bCarotene (AUC) / HT.deferox (AUC) / HT.digoxin (AUC) / HT.trolox (AUC) / HT.zVAD (AUC): HT-1080; for HT.atoc (AUC): modulator atoc; for HT.bCarotene (AUC): modulator bCarotene; for HT.deferox (AUC): modulator deferox; for HT.digoxin (AUC): modulator digoxin; for HT.trolox (AUC): modulator trolox; for HT.zVAD (AUC): modulator zVAD; on AUC HT.BHA: reference of the scale not given here; on AUC HT.EGTA: reference of the scale not given here

Compound	AUC, modulator BJ.3MA (BJeLR)	AUC, modulator BJ.ALLN (BJeLR)	AUC, modulator BJ.Boc D (BJeLR)	AUC, modulator BJ.CHX (BJeLR)	AUC, modulator BJ.Co2+ (BJeLR)	AUC, modulator BJ.DPQ (BJeLR)	AUC, modulator BJ.Gd3+ (BJeLR)	AUC, modulator BJ.LNAME (BJeLR)	AUC, modulator BJ.Lmin/NAD+ (BJeLR)	AUC, modulator BJ.Lmin (BJeLR)	AUC, modulator BJ.NAD+ (BJeLR)	AUC, modulator BJ.NMMA (BJeLR)	AUC, modulator BJ.Nec-1 (BJeLR)	AUC, modulator BJ.Pepstatin (BJeLR)	AUC, modulator BJ.TLCK (BJeLR)	AUC HT.ATA (HT-1080)	AUC HT.ActD (HT-1080)	AUC HT.BHA (HT-1080)	AUC HT.BHT (HT-1080)	AUC HT.BocD (HT-1080)	also measured
COc1c2c(cc3c1C(CC(=O)/C=C/c1ccccc1)[N+](C)(C)CC3)OCO2 (stereo not drawn) [CIL77]	−0.05728	0.01826	0.05622	0.2548	0.1866	−0.009273	−0.007344	0.03349	0.04982	−0.04848	−0.05677	−0.02771	−0.06543	0.07338	−0.05565	0.05492	0.0959	−0.008714	−0.07998	−0.02828	AUC HT.CHX (HT-1080): 0.1436; AUC HT.Co2+ (HT-1080): 0.1261; AUC HT.CspA (HT-1080): −0.05791; AUC HT.DPQ (HT-1080): 0.003496; AUC HT.EGTA (HT-1080): −0.00345; AUC HT.Gd3+ (HT-1080): −0.0368; AUC HT.LNAME (HT-1080): 0.01693; AUC HT.Lmim (HT-1080): 0.02573; AUC HT.NAD+ (HT-1080): 0.003357; AUC HT.NMMA (HT-1080): −0.01509; HT.atoc (AUC) (HT-1080): 0.02076; HT.bCarotene (AUC) (HT-1080): −0.005078; HT.deferox (AUC) (HT-1080): 0.09145; HT.digoxin (AUC) (HT-1080): −0.01405; HT.trolox (AUC) (HT-1080): −0.01064; HT.zVAD (AUC) (HT-1080): 0.02554
C[C@H]1CCC[C@]2(C)C[C@H]3OC(=O)[C@H](CN4CCCC4)[C@H]3C=C12 [CIL80]	0.00654	−0.004769	0.008783	0.1351	0.09506	−0.03368	0.01802	0.02901	0.09271	0.01639	−0.008515	−3.885E−05	−0.01593	0.03142	−0.006094	0.05781	0.08002	0.009452	−0.01971	−0.02337	AUC HT.CHX (HT-1080): 0.09741; AUC HT.Co2+ (HT-1080): 0.112; AUC HT.CspA (HT-1080): 0.01161; AUC HT.DPQ (HT-1080): −0.01717; AUC HT.EGTA (HT-1080): 0.0199; AUC HT.Gd3+ (HT-1080): −0.03226; AUC HT.LNAME (HT-1080): 0.01972; AUC HT.Lmim (HT-1080): 0.05449; AUC HT.NAD+ (HT-1080): 0.01251; AUC HT.NMMA (HT-1080): −0.01256; HT.atoc (AUC) (HT-1080): 0.004877; HT.bCarotene (AUC) (HT-1080): 0.003874; HT.deferox (AUC) (HT-1080): 0.1672; HT.digoxin (AUC) (HT-1080): 0.06493; HT.trolox (AUC) (HT-1080): −0.01954; HT.zVAD (AUC) (HT-1080): 0.03135
